This is an account of results in US3950379A, “2-Cyano-diphenyl ethers” (Rohm and Haas Company, priority 1974, dated 1976).

Format in all cases: in vivo
Test [1] has as its system Monocots. The experiment in a line: Herbicidal activity, preemergence, monocot weeds in flats (% control). Particulars: pre-emergence, 336 h, about 2 weeks after application, percent of plants killed; for activity at 11208.5 g/ha: monocots (4 species, average), 10 lb./A.; for activity at 2241.7 g/ha / activity at 4483.4 g/ha: monocots (10 species, average); for activity at 2241.7 g/ha: 2 lb./A.; for activity at 4483.4 g/ha: 4 lb./A. As for the experimental part: (§1) Using the procedure described below, diphenyl ethers were evaluated for control of the following weeds: At 10 pounds per acre: […]
(§2) barnyardgrass (Echinochloa crusgalli) crabgrass (Digitaria spp.) nutsedge (Cyperus esculentus)
(§3) At 2 and 4 pounds per acre: […]
(§4) downy brome (Bromus tectorum) foxtail (Setaria faberii)
(§5) Johnsongrass (Sorghum halepense) […]
(§6) quackgrass (Agropyron repens) ryegrass (Lolium perenne) […]
(§7) yellow millet (Panicum miliaceum)
(§8) The following test procedure is employed. Seeds of selected crops and weeds are planted in soil in flats. For preemergence tests, the flats are treated with the test compound immediately after the planting. For post-emergence tests, the seeds are allowed to germinate, and after 2 weeks the flats are treated with the test compound. The compound to be evaluated is dissolved in acetone, diluted with water, and sprayed over the flats using a carrier volume equivalent to 50 gallons per acre at the rate of application (pounds per acre, lb/A.) specified in the tables. About 2 weeks after the application of the test compound, the state of growth of the plant is observed and the phytotoxic effect of the compound is evaluated. Table II gives the average percent control achieved by the test compounds in terms of the percent of the plants which are killed by the compounds.

In test [2] the test system is Dicots. The experiment in a line: Herbicidal activity, postemergence, dicot weeds in flats (% control). To be noted: post-emergence, 336 h, dicots (10 species, average), about 2 weeks after application, percent of plants killed; for activity at 2241.7 g/ha: 2 lb./A.; for activity at 4483.4 g/ha: 4 lb./A.
Test [3] relates to Monocots. The test is described as follows: Herbicidal activity, postemergence, monocot weeds in flats (% control). Particulars: post-emergence, 336 h, about 2 weeks after application, percent of plants killed; for activity at 11208.5 g/ha: monocots (4 species, average), 10 lb./A.; for activity at 2241.7 g/ha / activity at 4483.4 g/ha: monocots (10 species, average); for activity at 2241.7 g/ha: 2 lb./A.; for activity at 4483.4 g/ha: 4 lb./A. The method, then: as §1, §2, §3, §4, §5, §6, §7, §8

Test [4] concerns Dicots. The test is described as follows: Herbicidal activity, preemergence, dicot weeds in flats (% control). Particulars: pre-emergence, 336 h, dicots (4 species, average), 10 lb./A., about 2 weeks after application, percent of plants killed. The method, then:
as §1
(§9) bindweed (Convolvulus arvensis) curly dock (Rumex crispus) velvetleaf (Abutilon theophrasti) wild mustard (Brassica haber)
as §3
(§10) cocklebur (Xanthium pensylvanicum) […]
(§11) lambsquarters (Chenopodium album) morningglory (Ipomoea purpurea) pigweed (Amaranthus retroflexus) smartweed (Polygonum pensylvanicum) […]
(§12) wild carrot (Daucus carota)
as §8

The test system of test [5] is Dicots. Described as above. Particulars: pre-emergence, 336 h, dicots (10 species, average), about 2 weeks after application, percent of plants killed; for activity at 2241.7 g/ha: 2 lb./A.; for activity at 4483.4 g/ha: 4 lb./A.
In test [6] the test system is Dicots. The test is described as follows: Herbicidal activity, postemergence, dicot weeds in flats (% control). Particulars: post-emergence, 336 h, dicots (4 species, average), 10 lb./A., about 2 weeks after application, percent of plants killed. The method, then: as §1, §9, §3, §10, §11, §12, §8

`N#Cc1cc(C(F)(F)F)ccc1Oc1ccc(Cl)c(Cl)c1` [Example 7]: the activity at 11208.5 g/ha with Monocots [1] was determined as 0%; with Monocots [3] it was 40%; with Dicots [4], 0%; in the test with Dicots [6] it was 77%. In addition, the activity at 2241.7 g/ha in the test with Monocots [1] came to 56%; with Dicots [2] it was 55%; in the test on Monocots [3], 36%; with Dicots [5] it was 65%. Besides, the activity at 4483.4 g/ha amounted to 66% with Monocots [1], 64% in the test with Dicots [2], 36% in the test with Monocots [3] and 41% in the test on Dicots [5].
As to `N#Cc1cc(C(F)(F)F)ccc1Oc1ccc(C(F)(F)F)cc1` [Example 6, 2-cyano-α, α, α-trifluoro-p-tolyl-α,α,α-trifluoro-p-tolyl ether], the activity at 11208.5 g/ha in the test with Monocots [1] stood at 0%; in the test on Monocots [3], 70%; in the test with Dicots [4], 10%; in the test with Dicots [6] it was 75%. Besides, the activity at 2241.7 g/ha in the test with Monocots [1] turned out to be 34%; in the test on Dicots [2], 49%; in the test with Monocots [3], 34%; with Dicots [5], 5%.
On to `N#Cc1cc(F)ccc1Oc1ccc([N+](=O)[O-])cc1` [Example 1, 2-cyano-4-fluoro-4'-nitrodiphenyl ether], for which the activity at 11208.5 g/ha with Monocots [1] stood at 77%; in the test on Monocots [3], 95%; with Dicots [4] it was 77%; in the test with Dicots [6], 100%. For the same molecule, the activity at 4483.4 g/ha in the test on Monocots [1] stood at 47%; in the test on Dicots [2], 58%; with Monocots [3], 44%; in the test with Dicots [5], 51%.
As to `N#Cc1cc(C(F)(F)F)ccc1Oc1ccc(Br)cc1` [Example 4, 2-cyano-α, α, α-trifluoro-p-tolyl-4-bromophenyl ether], the activity at 11208.5 g/ha in the test with Monocots [1] amounted to 5%; with Monocots [3] it was 22%; in the test with Dicots [4], 0%; with Dicots [6], 85%. In addition, the activity at 2241.7 g/ha with Monocots [1] is 51%; in the test on Dicots [2], 50%; in the test on Monocots [3], 34%; with Dicots [5] it was 34%. The activity at 4483.4 g/ha with Monocots [1] was 67%; in the test on Dicots [2], 56%; with Monocots [3] it was 34%; in the test with Dicots [5] it was 37%.
For the molecule `N#Cc1cc(C(F)(F)F)ccc1Oc1ccc(Cl)cc1` [Example 3, 2-cyano-α,α,α-trifluoro-p-tolyl-4-chlorophenylether], the activity at 11208.5 g/ha in the test on Monocots [1] was determined as 10%; in the test on Monocots [3], 17%; with Dicots [4], 10%; in the test with Dicots [6], 75%. Moreover, the activity at 2241.7 g/ha in the test with Monocots [1] is 65%; in the test with Dicots [2], 50%; in the test with Monocots [3], 27%; in the test with Dicots [5], 61%. For the same molecule, the activity at 4483.4 g/ha was found to be 59% with Monocots [1], 38% with Dicots [2], 9% in the test on Monocots [3] and 40% in the test on Dicots [5].
In the case of `N#Cc1cc(Cl)ccc1Oc1ccc([N+](=O)[O-])cc1` [Example 2], the activity at 11208.5 g/ha in the test on Monocots [1] was 81%; in the test with Monocots [3] it was 95%; with Dicots [4], 95%; in the test on Dicots [6], 100%. In addition, the activity at 4483.4 g/ha amounted to 49% in the test with Monocots [1], 64% in the test with Dicots [2], 44% with Monocots [3] and 55% in the test with Dicots [5].
As to `N#Cc1ccc(Oc2ccc(C(F)(F)F)cc2C#N)cc1` [Example 5], the activity at 11208.5 g/ha is 70% with Monocots [1], 25% in the test on Monocots [3], 77% with Dicots [4] and 65% with Dicots [6]. In addition, the activity at 2241.7 g/ha with Monocots [1] was 42%; in the test with Dicots [2] it was 59%; with Monocots [3], 48%; in the test with Dicots [5], 47%. The activity at 4483.4 g/ha came to 44% in the test with Monocots [1], 41% in the test with Dicots [2], 11% in the test on Monocots [3] and 50% in the test on Dicots [5].
